Measured values as given in patent publication US12410195B2, “Pharmaceutical compositions comprising 4-((6bR,10aS)-3-methyl-2,3,6b,9,10,10a-hexahydro-1H-pyrido[3′,4′:4,5]pyrrolo[1,2,3-de]quinoxalin-8(7H)-yl)-1-(4-((6bR,10aS)-3-methyl-2,3,6b,9,10,10a-hexahydro-1H-pyrido[3′,4′:4,5]pyrrolo[1,2,3-de]quinoxalin-8(7H)-yl)phenyl)butan-1-one for treating conditions …” (INTRA-CELLULAR THERAPIES, INC., priority 2019, dated 2025).

Key:
[1] = target: SERT (Homo sapiens, UniProt P31645); test: Radioligand receptor binding, SERT (antagonist binding); conditions: radioligand imipramine
Sequence of SERT (P31645 whole entry): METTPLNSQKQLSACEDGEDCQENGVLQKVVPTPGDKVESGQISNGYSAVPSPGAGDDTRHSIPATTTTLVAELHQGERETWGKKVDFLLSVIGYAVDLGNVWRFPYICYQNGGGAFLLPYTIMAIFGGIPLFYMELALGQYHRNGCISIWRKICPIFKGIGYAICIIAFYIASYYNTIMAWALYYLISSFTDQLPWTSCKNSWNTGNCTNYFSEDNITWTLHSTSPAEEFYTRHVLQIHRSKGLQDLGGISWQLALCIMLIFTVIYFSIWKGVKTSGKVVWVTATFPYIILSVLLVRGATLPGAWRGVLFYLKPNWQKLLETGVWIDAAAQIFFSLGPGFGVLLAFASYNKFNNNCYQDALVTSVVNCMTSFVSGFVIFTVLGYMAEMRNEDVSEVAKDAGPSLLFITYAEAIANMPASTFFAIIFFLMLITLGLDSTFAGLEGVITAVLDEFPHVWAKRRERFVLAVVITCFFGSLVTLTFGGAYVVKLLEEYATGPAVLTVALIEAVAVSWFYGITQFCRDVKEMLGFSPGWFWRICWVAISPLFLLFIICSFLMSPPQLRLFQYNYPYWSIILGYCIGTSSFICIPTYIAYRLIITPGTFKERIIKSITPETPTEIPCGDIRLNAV
Method: (§1) Receptor binding is determined for the Compounds of Example 1. The following literature procedures are used, each of which reference is incorporated herein by reference in their entireties: 5-HT2A: Bryant, H. U. et al. (1996), Life Sci., 15:1259-1268; D2: Hall, D. A. and Strange, P. G. (1997), Brit. J. Pharmacol., 121:731-736; D1: Zhou, Q. Y. et al. (1990), Nature, 347:76-80; SERT: Park, Y. M. et al. (1999), Anal. Biochem., 269:94-104; Mu opiate receptor: Wang, J. B. et al. (1994), FEBS Lett., 338:217-222.
(§2) The compound of Example 1 is tested at a concentration of […] in DMSO solution. Compound binding is calculated as the percent inhibition of the binding of a radioactively labeled ligand specific for each target. The control ligands are radiolabeled forms of SCH 23390 (for D1), 7-hydroxy-DPAT (for D2S), racemic DOI (for 5-HT2A and 5-HT2B), veratridine (for sodium channel site 2), protriptyline (for NET) and imipramine (for SERT).
(§3) In general, the results are expressed as a percent of control specific binding:
(§4) [formula] and as a percent inhibition of control specific binding:
(§5) [formula] obtained in the presence of the test compound (compound of Example 1).
(§6) Further pharmacology studies are conducted to determine IC50 values for receptor binding to the 5-HT2A receptor, D1 receptor, and SERT. For each study, the compound of Example 1 is tested at a range of concentrations and compound binding at each concentration is calculated as the percent inhibition of the binding of a radioactively labeled ligand specific for the target. The control ligands are radiolabeled forms of […], racemic DOI (for 5-HT2A), and imipramine (for SERT). The IC50 value is determined by non-linear regression analysis of the competition curve generated with mean replicate values using Hill Equation curve fitting:
(§7) [formula] wherein Y is specific binding, A is the left asymptote of the curve, D is the right asymptote of the curve, C is the compound concentration, and nH is the slope factor. Ki values are calculated using the Cheng Prusoff equation: […]

[2] = target: 5-HT2A receptor (Homo sapiens, UniProt P28223); test: Radioligand receptor binding, 5-HT2A (agonist binding); conditions: radioligand racemic DOI
Sequence of 5-HT2A receptor (P28223 whole entry): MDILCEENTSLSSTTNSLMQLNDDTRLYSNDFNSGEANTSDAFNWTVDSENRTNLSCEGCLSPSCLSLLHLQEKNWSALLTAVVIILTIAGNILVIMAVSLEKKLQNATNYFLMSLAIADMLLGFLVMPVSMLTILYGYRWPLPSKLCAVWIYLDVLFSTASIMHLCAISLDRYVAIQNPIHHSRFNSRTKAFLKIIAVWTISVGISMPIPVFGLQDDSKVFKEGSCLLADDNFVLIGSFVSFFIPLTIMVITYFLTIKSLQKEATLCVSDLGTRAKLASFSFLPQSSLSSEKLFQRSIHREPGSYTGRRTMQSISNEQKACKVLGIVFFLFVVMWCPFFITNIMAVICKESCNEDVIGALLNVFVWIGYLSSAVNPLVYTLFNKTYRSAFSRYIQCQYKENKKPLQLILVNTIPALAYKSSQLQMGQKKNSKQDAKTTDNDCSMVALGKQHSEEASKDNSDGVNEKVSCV
Method: as §1, §2, §3, §4, §5, §6, §7

[3] = target: 5-HT2B (Homo sapiens, UniProt P41595); test: Radioligand receptor binding, 5-HT2B (agonist binding); set-up: dose or concentration left out as unconfirmed; conditions: in DMSO solution; radioligand racemic DOI
Sequence of 5-HT2B (P41595 whole entry): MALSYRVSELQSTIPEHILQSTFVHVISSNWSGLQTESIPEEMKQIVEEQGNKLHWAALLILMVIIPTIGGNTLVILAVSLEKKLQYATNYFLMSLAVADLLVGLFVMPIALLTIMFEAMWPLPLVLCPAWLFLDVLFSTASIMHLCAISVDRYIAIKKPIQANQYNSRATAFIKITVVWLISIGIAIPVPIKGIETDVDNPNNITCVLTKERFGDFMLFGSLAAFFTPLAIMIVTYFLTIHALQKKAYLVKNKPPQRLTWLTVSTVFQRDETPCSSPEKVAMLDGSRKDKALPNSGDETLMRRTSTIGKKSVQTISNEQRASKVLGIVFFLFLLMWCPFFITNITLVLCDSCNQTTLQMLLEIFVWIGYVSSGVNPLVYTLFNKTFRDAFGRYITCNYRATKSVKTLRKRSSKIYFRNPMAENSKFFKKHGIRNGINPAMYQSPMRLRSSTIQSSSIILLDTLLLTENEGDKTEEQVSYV
Method: as §1, §2, §3, §4, §5

[4] = target: D2S (Homo sapiens, UniProt P14416); test: Radioligand receptor binding, D2S (agonist binding); conditions: radioligand 7-hydroxy-DPAT
Sequence of D2S (P14416 1-414 isoform P14416-2): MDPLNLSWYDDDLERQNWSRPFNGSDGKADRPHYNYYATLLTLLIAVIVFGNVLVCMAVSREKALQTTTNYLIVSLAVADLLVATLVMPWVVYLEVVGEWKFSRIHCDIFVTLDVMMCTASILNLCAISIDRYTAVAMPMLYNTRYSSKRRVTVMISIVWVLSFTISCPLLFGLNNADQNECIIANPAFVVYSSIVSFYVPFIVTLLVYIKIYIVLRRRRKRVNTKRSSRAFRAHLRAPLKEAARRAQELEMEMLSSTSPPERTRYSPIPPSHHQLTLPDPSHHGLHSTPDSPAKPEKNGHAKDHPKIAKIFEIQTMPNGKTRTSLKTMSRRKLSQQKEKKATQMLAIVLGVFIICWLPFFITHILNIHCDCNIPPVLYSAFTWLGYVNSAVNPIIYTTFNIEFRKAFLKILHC
Method: as §1, §2, §3, §4, §5, §6, §7

[5] = target: D1 (Homo sapiens, UniProt P21728); test: Radioligand receptor binding, D1 (antagonist binding); set-up: dose or concentration left out as unconfirmed; conditions: in DMSO solution; radioligand SCH 23390
Sequence of D1 (P21728 whole entry): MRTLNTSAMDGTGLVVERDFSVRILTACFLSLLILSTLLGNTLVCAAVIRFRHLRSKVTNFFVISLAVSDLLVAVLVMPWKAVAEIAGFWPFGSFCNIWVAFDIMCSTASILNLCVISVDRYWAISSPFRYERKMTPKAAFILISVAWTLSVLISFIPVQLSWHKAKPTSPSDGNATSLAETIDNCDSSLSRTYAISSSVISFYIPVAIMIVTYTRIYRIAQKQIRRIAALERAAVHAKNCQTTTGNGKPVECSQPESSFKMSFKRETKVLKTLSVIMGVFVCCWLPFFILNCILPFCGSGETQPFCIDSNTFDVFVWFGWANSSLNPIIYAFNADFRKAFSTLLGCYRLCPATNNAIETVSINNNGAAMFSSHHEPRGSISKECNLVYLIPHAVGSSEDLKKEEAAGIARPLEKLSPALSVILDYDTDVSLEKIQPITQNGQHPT
Method: as §1, §2, §3, §4, §5

[6] = test system: Sodium channel (site 2); test: Radioligand binding, sodium channel site 2 (antagonist binding); conditions: tested at 1.01.1M in DMSO solution; radioligand veratridine
Method: as §2, §3, §4, §5

[7] = target: NET (Homo sapiens, UniProt P23975); test: Radioligand binding, NET (antagonist binding); set-up: dose or concentration left out as unconfirmed; conditions: tested in DMSO solution; radioligand protriptyline
Sequence of NET (P23975 whole entry): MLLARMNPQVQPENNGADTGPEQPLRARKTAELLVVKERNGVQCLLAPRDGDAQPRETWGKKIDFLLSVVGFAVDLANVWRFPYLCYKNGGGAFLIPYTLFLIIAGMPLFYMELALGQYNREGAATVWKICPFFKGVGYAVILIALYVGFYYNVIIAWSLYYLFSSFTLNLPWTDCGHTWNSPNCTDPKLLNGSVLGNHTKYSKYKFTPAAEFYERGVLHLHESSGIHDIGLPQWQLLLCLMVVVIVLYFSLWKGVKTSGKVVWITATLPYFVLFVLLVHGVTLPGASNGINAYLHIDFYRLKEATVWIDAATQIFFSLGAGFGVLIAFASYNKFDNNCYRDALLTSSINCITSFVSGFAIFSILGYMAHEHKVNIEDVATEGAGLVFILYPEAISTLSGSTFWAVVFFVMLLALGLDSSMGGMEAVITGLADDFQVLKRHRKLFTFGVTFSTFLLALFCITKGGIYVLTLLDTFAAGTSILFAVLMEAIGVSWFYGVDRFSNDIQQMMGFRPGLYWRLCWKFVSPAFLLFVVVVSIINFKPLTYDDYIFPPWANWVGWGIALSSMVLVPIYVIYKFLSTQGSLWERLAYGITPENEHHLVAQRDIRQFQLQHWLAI
Method: as §2, §3, §4, §5

[8] = test system: symptoms of emotional experience (negative symptoms of schizophrenia); test: Clinical studies in patients with acute exacerbated schizophrenia; format: in vivo, human; conditions: once daily 60 mg P.O., up to 28 days, two clinical studies
From the text: Social avoidance can be a critical and debilitating symptom in patients suffering from anxiety disorders, especially social anxiety disorder, as well as in patients suffering from traumatic anxiety disorders. Social avoidance is often one of the key determinants of whether a person with a severe anxiety disorder is capable of maintaining familial relationships or employment relationships. […] Negative symptoms of schizophrenia can be divided into two categories: emotional experience (e.g., emotional withdrawal, passive social withdrawal, active social avoidance) and emotional expression (e.g., blunted effect, poor rapport, lack of spontaneity, and motor retardation). […] These are the symptoms that are most highly correlated with interpersonal functioning.

[9] = tested at 1.01.1M in DMSO solution

Row | Structure (SMILES) | Ki ([1]; Cheng Prusoff equation) | IC50 ([1]; Hill equation curve fitting) | % inhibition of control specific binding, SERT (antagonist binding) [1, 9] | Ki ([2]; Cheng Prusoff equation) | IC50 ([2]; Hill equation curve fitting) | % inhibition of control specific binding, 5-HT2A (agonist binding) [2, 9] | % inhibition of control specific binding, 5-HT2B (agonist binding) [3] | Ki ([4]; Cheng Prusoff equation) | IC50 ([4]; Hill equation curve fitting) | % inhibition of control specific binding, D2S (agonist binding) [4, 9] | % inhibition of control specific binding, D1 (antagonist binding) [5] | % inhibition of control specific binding, Sodium channel (site 2 antagonist binding) [6] | % inhibition of control specific binding, NET (antagonist binding) [7] | symptoms of emotional experience compared to placebo [8]
1 | CN1CCN2c3c(cccc31)[C@@H]1CN(CCCC(=O)c3ccc(N4CC[C@H]5[C@@H](C4)c4cccc6c4N5CCN6C)cc3)CC[C@@H]12 [Compound 1, 4-((6bR,10aS)-3-methyl-2,3,6b,9,10,10a-hexahydro-1H-pyrido[3′,4′: 4,5]pyrrolo[1,2,3-de]quinoxalin-8(7H)-yl)-1(4-((6bR,10aS)-3-methyl-2,3,6b,9,10,10a-hexahydro-1H-pyrido[3′,4′: 4,5]pyrrolo[1,2,3-de]quinoxalin-8(7H)-yl)phenyl)butan-1-one] | 1.3 nM | 2.9 nM | 99.9% | 51 nM | 68 nM | 90.8% | 87.0% | 72 nM | 180 nM | 80.63% | 52.3% | 87.0% | 82.9% | 
2 | CN1CCN2c3c(cccc31)[C@@H]1CN(CCCC(=O)c3ccc(F)cc3)CC[C@@H]12 [lumateperone, 4-((6bR,10aS)-3-methyl-2,3,6b,9,10,10a-hexahydro-1H-pyrido[3′,4′: 4,5]pyrrolo[1,2,3-de]quinoxalin-8(7H)-yl)-1-(4-fluorophenyl)-1-butanone] |  |  |  |  |  |  |  |  |  |  |  |  |  | significant and unexpected improvement
